US11787835B2, “C19 scaffolds and steroids and methods of use and manufacture thereof” (Trustees of Dartmouth College, priority 2018, dated 2023)

Legend:
U251 and U87 cells [1] = test: Growth inhibition and viable cell counts of glioblastoma cell lines; type: cell-based, human; details: for inhibition of glioma cell growth (IC50), fold lower concentration compared to TMZ: after 24 hours, FIG. 3A
Protocol: FIG. 3A-3B are line graphs depicting (A) dose dependent growth inhibition of U251 and U87 cells treated with Compound 100, Compound 101, TMZ, and vehicle control DMSO (n=4) and (B) viable cell counts of U251 and U87 cells treated with Compound 100, Compound 101, TMZ, and vehicle control DMSO determined every 24 hours for 96 hours (n=4)
(§1) To determine the biological effect of Compound 100 and Compound 101, human glioblastoma-derived cell lines U251 and U87 were treated with varying concentrations of Compound 100, Compound 101, temazolomide (TMZ; a standard of care chemotherapeutic agent), or vehicle-toxicity control, dimethylsulfoxide (DMSO) used at final volumes that were identical to those used to attain all concentrations tested of Compound 100 and Compound 101.

U251 and U87 cells [2] = test: Annexin V/7-AAD apoptosis FACS analysis; type: cell-based, human; details: 24 hours, Annexin V and 7-AAD, FIG. 3C
Protocol: FIG. 3C is a flow cytometric analysis of U251 and U87 co-stained with Annexin V-FITC/7-AAD after treatment with Compound 100, Compound 101, TMZ, and vehicle control DMSO (n=4).
(§2) In order to elucidate the mechanism of this cell death, glioblastoma cells treated for 24 hours with Compound 100, Compound 101, TMZ, or DMSO control were analyzed for early and late apoptosis markers (Annexin V and 7-Aminoactinomycin D) by FACS analyses. […] Additionally, over a period of five days, morphological changes in U251 and U87 cells treated with Compound 100 and Compound 101 were tracked using the Incucyte live cell imaging system.

[3] = test system: DU-145 prostate cancer cells (endogenous ERβ); test: Alkaline phosphatase activity in DU-145 prostate cancer cells; type: cell-based, human; details: DU-145 cells, 24 hours, 5 μM, FIG. 2
Protocol: FIG. 2 is a bar graph showing alkaline phosphatase activity in human DU-145 prostate cancer cells (17β-estradiol, Compound 100, and Compound 101 were evaluated at 5 μM).
The DU-145 prostate cancer cell line only expresses ERβ and can be used as a model to examine the activation of ERβ in the absence of any potential confounding signal driven by ERα. Alkaline phosphatase (ALP) expression is induced in an ER-dependent manner and has been used to characterize the activity of synthetic ER agonists and antagonists.
In order to examine the ability of Compound 100 and Compound 101 to activate ERβ in the context of a cell line expressing endogenous ERβ, DU-145 cells were treated for 24 hours with either 17β-estradiol, Compound 100, or Compound 101 and ALP activity derived from the cells was examined.

ERβ = ERβ (Homo sapiens, UniProt Q92731); test: ERβ agonist assay (functional activity at estrogen receptors); type: cell-based
Protocol: FIG. 1 is a set of line graphs showing the results of ERβ and ERα agonist assays for Compounds 100 and 101.
Compounds 100 and 101 were evaluated for their functional activity at estrogen receptors (both ERα and ERβ). 17β-estradiol was used as a control, as it is appreciated to be a potent agonist of both ERα and ERβ.

glioblastoma cell lines = test: MTT cell viability assay in glioblastoma cell lines; type: cell-based, human
Protocol: as §1

U251 and U87 cells [4] = test: Incucyte live cell imaging of morphological changes; type: cell-based, human; details: over five days, FIG. 3D
Protocol: FIG. 3D depicts phase-contrast images using Incucyte for live cell tracking of U251 and U87 cells in response to treatment with Compound 100, Compound 101, TMZ, and vehicle control DMSO. Live cells were tracked and imaged for 96 hours (data not shown). Scale bar=300 μm. All data in FIG. 3A-3D are representative of four independent experiments and four replicates of each treatment condition were analyzed per experiment.
as §2

established tumors = test: In vivo growth of established tumors; details: initial studies
Source text: In comparison to 17β-estradiol, Compound 100 and Compound 101 have a unique profile for selective agonism of ERβ (FIG. 1).

[5] = test system: primary glioma tumor cells from patients; test: Growth of primary glioma tumor cells from patients; type: cell-based, human
Source text: The present disclosure also relates to the use of such compounds as biologically active (e.g., therapeutic) components in, for example, pharmaceutical compositions and/or directly as human and/or animal therapeutics and medicines. In certain embodiments, the compounds are ERβ selective agonists and/or may be used to treat or prevent conditions, disorders, or diseases such as cancer (e.g., breast cancer, prostate cancer, ovarian cancer, acute myeloid leukemia, and glioma, among others) or neurodegeneration. Currently there is no widely applicable cure for primary brain tumors.

ERβ, sequence (Q92731 whole entry, species assumed): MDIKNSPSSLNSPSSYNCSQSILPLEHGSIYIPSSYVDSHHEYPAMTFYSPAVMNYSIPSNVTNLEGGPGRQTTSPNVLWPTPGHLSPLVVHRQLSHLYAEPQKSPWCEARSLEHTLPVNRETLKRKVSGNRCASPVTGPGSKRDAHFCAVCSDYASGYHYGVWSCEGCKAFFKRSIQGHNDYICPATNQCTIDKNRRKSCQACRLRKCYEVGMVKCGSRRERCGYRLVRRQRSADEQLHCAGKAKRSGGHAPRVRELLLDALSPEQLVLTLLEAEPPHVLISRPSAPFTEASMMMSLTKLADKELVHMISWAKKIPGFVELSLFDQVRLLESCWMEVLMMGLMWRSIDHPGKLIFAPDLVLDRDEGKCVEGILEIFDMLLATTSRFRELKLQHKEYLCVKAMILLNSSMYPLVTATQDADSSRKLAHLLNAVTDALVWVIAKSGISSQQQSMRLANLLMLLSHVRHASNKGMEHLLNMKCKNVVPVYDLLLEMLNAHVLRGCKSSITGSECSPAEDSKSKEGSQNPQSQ

inhibition of glioma cell growth (IC50), fold lower concentration compared to TMZ (U251 and U87 cells [1]) [fold] | type of ERβ agonism (ERβ) | Structure (SMILES) | induction of apoptosis, fold higher than TMZ or DMSO controls (U251 and U87 cells [2]) [fold] | induction of ALP activity [3] | viability and proliferation of glioblastoma lines (U251 and U87 cells [1]; assessed every 24 hours for 5 days, compared to TMZ or DMSO, FIG. 3B) | growth of glioblastoma cell lines (MTT) (glioblastoma cell lines) | morphological changes (adherence, cellular integrity) (U251 and U87 cells [4]) | growth of established tumors in vivo (established tumors) | growth of primary glioma tumor cells from patients [5]
50 |  | C[C@@]12CC[C@]3(C)C(=C1C[C@H](O)C2)CCc1cc(O)ccc13 [Compound 101, (9R,13S,16R)-9,13-dimethyl-7,9,11,12,13,15,16,17-octahydro-6H-cyclopenta[a]phenanthrene-3,16-diol] | 7 |  |  |  |  |  | 
 |  | C[C@]12CC[C@@H]3c4ccc(O)cc4CC[C@H]3[C@@H]1CC[C@@H]2O [17β-estradiol, reference compound] |  | effective in inducing ALP activity |  |  |  |  | 
50 | full agonist | C[C@]12CC[C@@]3(C)C(=C1C[C@@H](O)C2)CCc1cc(O)ccc13 [Compound 100, (9S,13R,16S)-9,13-dimethyl-7,9,11,12,13,15,16,17-octahydro-6H-cyclopenta[α]phenanthrene-3,16-diol] | 7 | effective at inducing ALP to levels comparable to 17β-estradiol | reduced viability and the resulting proliferation of glioblastoma lines in a dose dependent manner | significantly reduced the growth of glioblastoma cell lines in a dose-dependent manner | Increased loss of adherence and cellular integrity | reduces the growth of established tumors | inhibit growth
